Laboratory results published in patent US6441032B1, “Alpha-(4-Ethoxyphenyl)-N-tert-butylnitrone, pharmaceutical compositions and their medical use” (Centaur Pharmaceuticals, Inc., priority 1997, dated 2002).

Legend:
[1] = tested on: Lewis rats with MBP-induced EAE; test: Prevention of MBP-induced experimental allergic encephalomyelitis; format: in vivo, Lewis rat; conditions: 100 mg/kg b.i.d. oral gavage, day 3 to day 16 post-inoculation
Description: Female, Lewis rats of 8 weeks of age (180-250 g) were weighed and then given two intradermal injections (0.1 mL each) of 0.4 mg of M. tuberculin in 0.1 mL incomplete Freunds adjuvant and […] of myelin basic protein in 0.1 mL of saline into the base of the tail. Animals were weighed daily and given a clinical score beginning on Day 8, post inoculation, according to the following criteria:
2.5=Hind limb paralysis and front limb weakness
3.0=Hind and front limb paralysis
4.0=Moribund state or death
On day 3, post-inoculation animals were administered b.i.d either a test compound (100 mg/kg) or 1% methylcellulose vehicle by oral gavage up to and including day 16.

[2] = tested on: Male Sprague-Dawley rats injected with Aβ(25-35) and ibotenate; test: Reduction of cognitive defects due to Aβ-peptide/ibotenate (Morris water maze); format: in vivo, Sprague-Dawley rat; conditions: 10 mgl/k by oral gavage daily
From the text: The procedures employed in this example are similar to those described in Dornan et al. NeuroReport 5, 165-168 (1993). Male Sprague-Dawley rats (200-300 g) were weighed and given 10 mgl/k of α-(2-ethoxyphenyl)-N-tert-butylnitrone or 1% methylcellulose by oral gavage. One hour later, the rats were stereotaxically injected into the CA1 region of their hippocampus with 8 nmol of Aβ(25-35) and 6 nmol of ibotenate per side (coordinates from bregma −3.6=AP, ±2.2=ML, −3.0=DV from the top of the dura). Controls were injected with PBS (pH 7.4). All injections were 1.5 μL in volume. The animals receiving PBS were orally dosed with 1% methylcellulose. Oral dosing continued daily until the end of the Morris water maze testing.
Nine to eleven days following injection, animals were tested in a Morris water maze task to measure spatial memory and learning. Animals were given three days of testing with four to six trials per day. The last trial on the fourth day was a probe trial where the platform was removed and time in quadrant and annulae crossings were determined. Following the behavioral testing, animals were perfused with 10% neutral formalin. The brain was post-fixed for 1 week in 10% formalin and then sliced for histological evaluation. Image analysis of cresyl violet staining was used to compare the neuronal loss (lesion volume) in the hippocampus between groups.

MRL/MpJ Fas^lpr mice = test: Reduction of cognitive deficits in autoimmune mice (T-maze task); format: in vivo, mouse; conditions: 100 mg/kg oral gavage daily for 8 to 9 weeks, versus untreated mutant mice
Description: MRL/MpJfas^lPr (“mutant mice” or “Fas^lPr”) strains of mice have been described as useful models of Lupus due to their autoimmune lymphoproliferative pathology. In particular, the mutant mice show a cognitive deficit at approximately four months of age, which is not observed at two months of age. See, for example, Forster et al., 1988. Behav. Neural Biology, 49, 139-151.
In the experiment, male MRL/MpJ Fas^lpr and normal MRL/MpJ++mice of 8 weeks of age were weighed and administered 100 mg/kg of the test compound (either α-(2-ethoxyphenyl)-N-tert-butylnitrone or α-(4-ethoxyphenyl)-N-cyclohexylnitrone) or 1% methylcellulose vehicle by oral gavage daily for 8 to 9 weeks. At 4 months of age, the mice were tested for avoidance, discrimination, session criteria and acquisition in a one day T-maze task with a maximum of 25 trials. Criteria was met with four of five trials correct with the last two correct trials being consecutive in avoidance and discrimination.

Compound | CNS inflammatory deficit in acute EAE animals [1] | further results
CCOc1cc(C=[N+]([O-])C(C)(C)C)ccc1OC [Example 3, α-(3-Ethoxy-4-methoxyphenyl)-N-tert-butylnitrone] | reduced the CNS inflammatory deficit | –
CCCC[N+]([O-])=Cc1ccc(OCC)cc1 [Example 10, α-(4-ethoxyphenyl)-N-n-butylnitrone] | did not significantly reduce the CNS inflammatory deficit | –
CCOc1ccc(C=[N+]([O-])C(C)(C)C)cc1 [Example 4, α-(4-Ethoxyphenyl)-N-tert-butylnitrone] | did not significantly reduce the CNS inflammatory deficit | –
CCCCCCCCOc1ccc(C=[N+]([O-])C(C)(C)C)c(F)c1 [Example 29, α-(2-Fluoro-4-octyloxyphenyl)-N-tert-butylnitrone] | did not significantly reduce the CNS inflammatory deficit | –
CCOc1ccccc1C=[N+]([O-])C(C)(C)C [Example 7, α-(2-Ethoxyphenyl)-N-tert-butylnitrone] | did not significantly reduce the CNS inflammatory deficit | Aβ peptide/ibotenate-induced learning deficit [2]: reduced the Aβ peptide/ibotenate-induced learning deficit; acquisition in T-maze task (MRL/MpJ Fas^lpr mice): reduced acquisition values; avoidance in T-maze task (MRL/MpJ Fas^lpr mice): acquired avoidance skills earlier
CC(C)(C)[N+]([O-])=Cc1ccc(OCc2ccccc2)cc1 [Example 41, α-(4-Benzyloxyphenyl)-N-tert-butylnitrone] | reduced the CNS inflammatory deficit | –
CCOc1ccc(C=[N+]([O-])C2CCCCC2)cc1OC [Example 15, α-(4-Ethoxy-3-methoxyphenyl)-N-cyclohexylnitrone] | did not significantly reduce the CNS inflammatory deficit | –
CCOc1cc(C=[N+]([O-])C(C)(C)CC(C)(C)C)ccc1OC [Example 45, α-(3-Ethoxy-4-methoxyphenyl)-N-tert-octylnitrone] | reduced the CNS inflammatory deficit | –
CCCCCCOc1ccc(C=[N+]([O-])C2CCCCC2)cc1OCC [Example 22, α-(3-Ethoxy-4hexyloxyphenyl)-N-cyclohexylnitrone] | reduced the CNS inflammatory deficit | –
COc1cc(C=[N+]([O-])C(C)(C)C)ccc1OCc1ccccc1 [Example 5, α-(4-Benzyloxy-3-methoxyphenyl)-N-tert-butylnitrone] | did not significantly reduce the CNS inflammatory deficit | –
[O-][N+](=Cc1ccc(OCc2ccccc2)cc1)C1CCCC1 [Example 42, α-(4-Benzyloxyphenyl)-N-cyclopentylnitrone] | reduced the CNS inflammatory deficit | –
CCOc1ccc(C=[N+]([O-])C2CCCCC2)cc1 [Example 11, α-(4-Ethoxyphenyl)-N-cyclohexylnitrone] | reduced the CNS inflammatory deficit | acquisition in T-maze task (MRL/MpJ Fas^lpr mice): reduced acquisition values; avoidance in T-maze task (MRL/MpJ Fas^lpr mice): acquired avoidance skills earlier
CCOc1cc(C=[N+]([O-])C(C)C)ccc1OC [Example 17, α-(3-Ethoxy-4-methoxyphenyl)-N-isopropylnitrone] | reduced the CNS inflammatory deficit | –
